From ChEMBL document CHEMBL1143533, “A short, stereoselective, and common approach for the synthesis of 4,5-disubstituted delta-lactones simplactone B and its C-5 analogue” (Bioorg Med Chem Lett, 2005) come the findings set out here.

Molecules are shown by their SMILES. pIC50: −log10 of the molar value.

A short description of the experiment: Inhibitory concentration against human breast cancer cell line (HBL-100) by MTT method. Format: functional, cell-based. The note with it: Cancer cell lines. (In general: Tetrazolium dyes change colour on reduction, which living cells bring about.)

Regarding `CCCCCCCCCCCCCC[C@@H]1COC(=O)C[C@H]1O`, the negative-log IC50 (pIC50) was 6.75.

For orientation: pIC50 means −log10 of the IC50, conventionally taken in molar units. A lower pIC50 goes with a large IC50.
